Consider five compounds from patent US4980349A, “Sulphonamides derived from diarylmethanes, the processes for preparing them and pharmaceutical compositions containing them” (SANOFI, priority 1986, dated 1990).

Read-outs that look alike come from different tables or passages of the source.

The test system of data set [1] is pain threshold of brewer's yeast inflamed rat hind foot. Nature of the data set: Randall and Sellitto's test (analgesic activity). Conditions: for change in vivo at 25 mg/kg: 25 mg/kg oral; for change in vivo at 25 mg/kg / change in vivo at 50 mg/kg / change in vivo at 100 mg/kg: read-out: percentage increase in the mean pain threshold; for change in vivo at 50 mg/kg: 50 mg/kg oral; for change in vivo at 100 mg/kg: 100 mg/kg oral; for ED50: po, analgesia, read-out: 50% active dose. Type of data set: in vivo. Put shortly: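 Rats had 0.1 ml 20% brewer's yeast suspension injected under the hind-foot plantar aponeurosis; compounds dosed orally by stomach tube 1 h before yeast. Pain threshold was the pressure eliciting foot withdrawal, read at the 4–6 h plateau; result is % increase in mean threshold versus untreated controls, 10 rats per group.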

The nature of the next data set: Oral LD50 in mice. Conditions: mouse, in vivo, female Swiss CF mice, 20 g, 14 days observation, read-out: approximate oral LD50. As for the experimental part:
(§1) The compounds were suspended in a 3% strength solution of gum arabic so as to supply, in a volume of 2 ml for the rats, the equivalent of 50, 100, 200, 400 and 800 mg/kg, and, in a volume of 1 ml for the mice, 100, 200, 400, 800 and 1,600 mg/kg and, for 1573 and 1579, 3,200 mg/kg.
(§2) Gavage was performed by means of a metal tube, on batches of 5 animals for each series.
(§3) The animals were observed daily for 14 days.

The subject of data set [2] is biosynthesis of leukotrienes B4 (LTB4), human polymorphonuclear leukocytes. Nature of the data set: Biosynthesis of LTB4, isomers and oxidized metabolites in human polymorphonuclear leukocytes. Type of data set: cell-based. To be noted: Leukocyte. Put shortly: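 Human polymorphonuclear leukocytes (5×10^6, used within 6 h of blood draw) preincubated 10 min at 37° C. with test product at 40 μM in DMSO, stimulated with 10 μM ionophore A 23187 in PBS pH 7.4. LTB4, its isomers and oxidized metabolites quantified by HPLC at 269 nm against PGB2 internal standard, as % inhibition or % increase.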

A further data set in a line: Oral LD50 in rats. Conditions: rat, in vivo, male Wistar rats, 200-400 g, 14 days observation, read-out: approximate oral LD50. As for the experimental part:
as §1, §2, §3

Data set [3] deals with rat hind foot kaolin-induced oedema. In words: Kaolin-induced arthritis test, first experiment (decrease in inflammation, foot volume). Conditions: 1 h before kaolin, Table IX, read-out: percentage decrease in the inflammation. Type of data set: in vivo. Put shortly: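 Kaolin (0.05 ml of sterile 10% suspension) injected into metatarsal flexor sheath of rat hind foot; compounds given orally by stomach tube 1 h before. Foot volume measured by plethysmometer during early oedema (maximal 4–6 h). Value is % decrease in inflammation versus controls, mean of 10 animals per dose.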

For another data set, the system named is 5-lipoxygenase. In words: Production of LTB4 and 5-HETE by human leukocytes incubated with arachidonic acid. Type of data set: cell-based. To be noted: ionophore A 23187 5 μM, arachidonic acid 10 μg/ml. As for the experimental part: Human polymorphonuclear leukocytes suspended with arachidonic acid and stimulated by calcium ionophore produce leukotrienes B4 (LTB4).
The test consists in incubating fresh human leukocytes with arachidonic acid at a dose of 10 μg/ml to which a tracer dose of tritium-labelled arachidonic acid has been added. The leukocytes are stimulated with calcium ionophore A 23187 (Calbiochem, 5 μM) and the amount of 5-hydroxyeicosatetraenoic acid (5-HETE) and LTB4 produced is then assayed by HPLC.
5-HETE is the metabolite produced from arachidonic acid by 5-lipoxygenase, and from which LTB4 is produced by the action of an isomerase.
The results are expressed as an integration of the surface of the peak obtained in HPLC by comparison with that obtained with control leukocytes which have not been incubated with the test products.
The results in brackets are expressed as a percentage inhibition of the production of 5-HETE and LTB4.

The mark [4] stands for this setting: first experiment, read-out: Isomers of LTB4: percentage inhibition (+ : percentage increase in the production).
Setting [5] is: first experiment, read-out: LTB4: percentage inhibition (+ : percentage increase in the production).
The mark [6] stands for this setting: first experiment, read-out: Oxidized metabolites of LTB4: percentage inhibition (+ : percentage increase in the production).
Setting [7] is: second experiment, read-out: Percentage inhibition of LTB4 formation.

For `O=C(O)CCCCCCCCCCNS(=O)(=O)c1ccc(Cl)cc1C(=O)c1ccccc1` [Compound 1572, 11-(2-benzoyl-4-chlorobenzenesulphonamido)undecanoic acid], the change in vivo at 25 mg/kg in data set [1] (first experiment, Table XII) is 18%; in data set [3] (25 mg/kg oral), -17%. Moreover, the change in vivo at 50 mg/kg was 30% in data set [1] (first experiment, Table XII) and -26% in data set [3] (50 mg/kg oral). The change in vivo at 100 mg/kg in data set [1] (first experiment, Table XII) is 55%; in data set [3] (100 mg/kg oral), -50%. Besides, the figures for the LD50 at 336 h in the data set “Oral LD50 in mice” and in the data set “Oral LD50 in rats” were above 1600 mg/kg and above 800 mg/kg, respectively. Moreover, the inhibition at 40 µM in data set [2] (setting [4]) came out at 100%; in data set [2] (setting [5]), 84%; in data set [2] (setting [6]) it was 90%.
As to `O=C(O)CCCCCCCCCCNS(=O)(=O)c1ccc(Cl)cc1C(=O)c1ccccc1Cl` [Compound 1574, 11-[2-(2-chlorobenzoyl)-4-chlorobenzenesulphonamido]undecanoic acid], in data set [1] (second experiment, Table XIIa), the change in vivo at 25 mg/kg amounted to 45%, the change in vivo at 50 mg/kg is 50%, the change in vivo at 100 mg/kg amounted to 50% and the ED50 turned out to be 50 mg/kg. Besides, the LD50 at 336 h in the data set “Oral LD50 in mice” was above 1600 mg/kg. Also, the inhibition at 40 µM in data set [2] (setting [4]) came to 100%. In addition, the inhibition at 40 µM in data set [2] (setting [5]) came to 95%. In addition, in data set [2] (setting [6]), the inhibition at 40 µM was determined as 100%. Further, in data set [2] (setting [7]), the inhibition at 40 µM is 95%.
On to `O=C(O)CCCCCCCCCCCNS(=O)(=O)c1ccc(Cl)c(C(=O)c2ccccc2)c1` [Compound 1736, 12-(3-benzoyl-4-chlorobenzenesulphonamido)dodecanoic acid], for which, in data set [1] (second experiment, Table XIIa), the change in vivo at 25 mg/kg is 52%, the change in vivo at 50 mg/kg was determined as 58%, the change in vivo at 100 mg/kg stood at 60% and the ED50 stood at 25 mg/kg. Further, in the data set with 5-lipoxygenase, the “5-HETE, integration of the surface of the HPLC peak” value came out at 384; the “percentage inhibition of the production of 5-HETE (in brackets)” value was 89.6%; the “percentage inhibition of the production of LTB4 (in brackets)” value amounted to 100%. Also, the inhibition at 40 µM in data set [2] (setting [7]) stood at 100%.
As to `O=C(O)CCCCCCCCCCNS(=O)(=O)c1ccc(Cl)cc1C(O)c1ccccc1Cl` (stereo not drawn) [Compound 1796], in data set [1] (second experiment, Table XIIa), the change in vivo at 25 mg/kg was found to be 50%, the change in vivo at 50 mg/kg was determined as 55%, the change in vivo at 100 mg/kg was found to be 58% and the ED50 was determined as 25 mg/kg. Moreover, in the data set with 5-lipoxygenase, the “5-HETE, integration of the surface of the HPLC peak” value is 127 and the “LTB4, integration of the surface of the HPLC peak” value was found to be 152. In addition, in data set [2] (setting [7]), the inhibition at 40 µM amounted to 100%.
Take `O=C(O)CCCCCCCCCCNS(=O)(=O)c1ccc(Cl)cc1Cc1ccccc1Cl` [Compound 1797]: in data set [1] (second experiment, Table XIIa), the change in vivo at 25 mg/kg was 50%, the change in vivo at 50 mg/kg was 55% and the change in vivo at 100 mg/kg was found to be 58%. In addition, the inhibition at 40 µM in data set [2] (setting [7]) was 100%.
